The values below come from US20240376151A1, “STAPLED PEPTIDES AND METHODS THEREOF” (FOG PHARMACEUTICALS, INC., priority 2022, published 2024).

Data set [1] relates to Expi293 cells. The data set is described as follows: CellTiter-Glo cell health (ATP levels) during cell association assay. The format is cell-based. As to conditions: reflective of cell health, luminescence Tfinal (22 hours) / Tinitial.
Data set [2] relates to Expi293 cells. The data set is described as follows: Measurement of the Cell Association of Helicons (mass spectrometry quantification in cells after treatment and wash). The conditions noted are these: percentage of Helicons in cells after treatment and wash, 22 hours, n = 2, mean ± SD. The format is cell-based. On the procedure:
All samples were analyzed using mass spectrometry.

Take `CCCC[C@H](NC(=O)[C@@H](NC(C)=O)C(C)C)C(=O)N[C@@H](CCC(=O)O)C(=O)N[C@]1(C)CCCCCCC=CCCC[C@@](C)(C(=O)N[C@@H](Cc2c[nH]cn2)C(=O)N[C@@H](Cc2ccc(O)cc2)C(=O)N[C@H](C(N)=O)C(C)C)NC(=O)[C@H]([C@@H](C)CC)NC(=O)[C@H](Cc2ccccc2)NC(=O)[C@H](C)NC(=O)[C@H](C)NC(=O)[C@H](CCC(=O)O)NC(=O)[C@H](Cc2ccc(O)cc2)NC1=O` (single isomer, unassigned) [FP07856, Ac-Val-nLeu-Glu-R8-Tyr-Glu-Ala-Ala-Phe-Ile-S5-His-Tyr-Val-NH2]: the “CellTiter-Glo fold change ± SD” value in the data set on Expi293 cells [1] is 1.3 ± 0.12. Besides, the “Helicon in cells ± SD (%)” value in the data set with Expi293 cells [2] is given as 15.5 ± 0.9%.

As for `CC[C@H](C)[C@H](NC(C)=O)C(=O)N[C@@H](CC(C)C)C(=O)N[C@@H](CCC(N)=O)C(=O)N[C@]1(C)CCCCCCC=CCCC[C@@](C)(C(=O)N[C@@H](Cc2c[nH]cn2)C(=O)N[C@@H](Cc2ccc(O)cc2)C(=O)N[C@@H](CCC(N)=O)C(N)=O)NC(=O)[C@H](CO)NC(=O)[C@H](Cc2ccccc2)NC(=O)[C@H](C)NC(=O)[C@H](C)NC(=O)[C@H](CCC(=O)O)NC(=O)[C@H](Cc2ccc(O)cc2)NC1=O` (single isomer, unassigned) [FP07859, Ac-Ile-Leu-Gln-R8-Tyr-Glu-Ala-Ala-Phe-Ser-S5-His-Tyr-Gln-NH2], the “CellTiter-Glo fold change ± SD” value in the data set on Expi293 cells [1] is given as 1.2 ± 0.02. The “Helicon in cells ± SD (%)” value in the data set with Expi293 cells [2] was determined as 0.1 ± 0.0%.

With `CC[C@H](C)[C@H](NC(C)=O)C(=O)N[C@@H](CC(C)C)C(=O)N[C@@H](CCC(N)=O)C(=O)N[C@]1(C)CCCCCCC=CCCC[C@@](C)(C(=O)N[C@@H](Cc2c[nH]cn2)C(=O)N[C@@H](Cc2ccc(O)cc2)C(=O)N[C@@H](CCC(N)=O)C(N)=O)NC(=O)[C@H](CO)NC(=O)[C@H](Cc2ccccc2)NC(=O)[C@H](C)NC(=O)[C@H](C)NC(=O)[C@H](CCC(=O)O)NC(=O)[C@H](Cc2ccc(O)cc2)NC1=O` (single isomer, unassigned) [FP07860, Ac-Ile-Leu-Gln-R8-Tyr-Glu-Ala-Ala-Phe-Ser-S5-His-Tyr-Gln-NH2], the “CellTiter-Glo fold change ± SD” value in the data set on Expi293 cells [1] is listed as 1.2 ± 0.03. Further, the “Helicon in cells ± SD (%)” value in the data set with Expi293 cells [2] worked out at 0.3 ± 0.0%.

As to `CCCC[C@H](NC(=O)[C@@H](NC(C)=O)C(C)C)C(=O)N[C@@H](CCC(N)=O)C(=O)N[C@]1(C)CCCCCCC=CCCC[C@@](C)(C(=O)N[C@@H](Cc2c[nH]cn2)C(=O)N[C@@H](Cc2ccc(O)cc2)C(=O)N[C@H](C(N)=O)C(C)C)NC(=O)[C@H]([C@@H](C)CC)NC(=O)[C@H](Cc2ccccc2)NC(=O)[C@H](C)NC(=O)[C@H](C)NC(=O)[C@H](CCC(=O)O)NC(=O)[C@H](Cc2ccc(O)cc2)NC1=O` (single isomer, unassigned) [FP07863, Ac-Val-nLeu-Gln-R8-Tyr-Glu-Ala-Ala-Phe-Ile-S5-His-Tyr-Val-NH2], the “CellTiter-Glo fold change ± SD” value in the data set on Expi293 cells [1] is recorded as 1.2 ± 0.02. For the same molecule, the “Helicon in cells ± SD (%)” value in the data set with Expi293 cells [2] turned out to be 23.5 ± 6.5%.

Turning to `CCCC[C@H](NC(=O)[C@@H](NC(C)=O)C(C)C)C(=O)N[C@@H](CCC(N)=O)C(=O)N[C@]1(C)CCCCCCC=CCCC[C@@](C)(C(=O)N[C@@H](Cc2c[nH]cn2)C(=O)N[C@@H](Cc2ccc(O)cc2)C(=O)N[C@H](C(N)=O)C(C)C)NC(=O)[C@H]([C@@H](C)CC)NC(=O)[C@H](Cc2ccccc2)NC(=O)[C@H](C)NC(=O)[C@H](C)NC(=O)[C@H](CCC(=O)O)NC(=O)[C@H](Cc2ccc(O)cc2)NC1=O` (single isomer, unassigned) [FP07864, Ac-Val-nLeu-Gln-R8-Tyr-Glu-Ala-Ala-Phe-Ile-S5-His-Tyr-Val-NH2], in the data set with Expi293 cells [1], the “CellTiter-Glo fold change ± SD” value amounted to 1.1 ± 0.05. Moreover, in the data set on Expi293 cells [2], the “Helicon in cells ± SD (%)” value came out at 18.5 ± 11.4%.

As for `CCCC[C@H](NC(=O)[C@@H](NC(C)=O)C(C)C)C(=O)N[C@@H](CCC(=O)O)C(=O)N[C@]1(C)CCCCCCC=CCCC[C@@](C)(C(=O)N[C@@H](Cc2c[nH]cn2)C(=O)N[C@@H](Cc2ccc(O)cc2)C(=O)N[C@H](C(N)=O)C(C)C)NC(=O)[C@H]([C@@H](C)CC)NC(=O)[C@H](Cc2ccccc2)NC(=O)[C@H](C)NC(=O)[C@H](C)NC(=O)[C@H](CCC(N)=O)NC(=O)[C@H](Cc2ccc(O)cc2)NC1=O` (single isomer, unassigned) [FP07867, Ac-Val-nLeu-Glu-R8-Tyr-Gln-Ala-Ala-Phe-Ile-S5-His-Tyr-Val-NH2], the “CellTiter-Glo fold change ± SD” value with Expi293 cells [1] worked out at 1.2 ± 0.03. Moreover, in the data set with Expi293 cells [2], the “Helicon in cells ± SD (%)” value was 8.6 ± 0.4%.

Turning to `CCCC[C@H](NC(=O)[C@@H](NC(C)=O)C(C)C)C(=O)N[C@@H](CCC(=O)O)C(=O)N[C@]1(C)CCCCCCC=CCCC[C@@](C)(C(=O)N[C@@H](Cc2c[nH]cn2)C(=O)N[C@@H](Cc2ccc(O)cc2)C(=O)N[C@H](C(N)=O)C(C)C)NC(=O)[C@H]([C@@H](C)CC)NC(=O)[C@H](Cc2ccccc2)NC(=O)[C@H](C)NC(=O)[C@H](C)NC(=O)[C@H](CCC(N)=O)NC(=O)[C@H](Cc2ccc(O)cc2)NC1=O` (single isomer, unassigned) [FP07868, Ac-Val-nLeu-Glu-R8-Tyr-Gln-Ala-Ala-Phe-Ile-S5-His-Tyr-Val-NH2], the “CellTiter-Glo fold change ± SD” value with Expi293 cells [1] is listed as 1.2 ± 0.10. The “Helicon in cells ± SD (%)” value with Expi293 cells [2] was found to be 10.3 ± 1.4%.

As to `CCCC[C@H](NC(=O)[C@@H](NC(C)=O)C(C)C)C(=O)N[C@@H](CCC(N)=O)C(=O)N[C@]1(C)CCCCCCC=CCCC[C@@](C)(C(=O)N[C@@H](Cc2c[nH]cn2)C(=O)N[C@@H](Cc2ccc(O)cc2)C(=O)N[C@H](C(N)=O)C(C)C)NC(=O)[C@H]([C@@H](C)CC)NC(=O)[C@H](Cc2ccccc2)NC(=O)[C@H](C)NC(=O)[C@H](C)NC(=O)[C@H](CCC(N)=O)NC(=O)[C@H](Cc2ccc(O)cc2)NC1=O` (single isomer, unassigned) [FP07871, Ac-Val-nLeu-Gln-R8-Tyr-Gln-Ala-Ala-Phe-Ile-S5-His-Tyr-Val-NH2], the “CellTiter-Glo fold change ± SD” value with Expi293 cells [1] was found to be 1.2 ± 0.03. In the data set on Expi293 cells [2], the “Helicon in cells ± SD (%)” value is on record as 7.0 ± 0.3%.

As for `CCCC[C@H](NC(=O)[C@@H](NC(C)=O)C(C)C)C(=O)N[C@@H](CCC(N)=O)C(=O)N[C@]1(C)CCCCCCC=CCCC[C@@](C)(C(=O)N[C@@H](Cc2c[nH]cn2)C(=O)N[C@@H](Cc2ccc(O)cc2)C(=O)N[C@H](C(N)=O)C(C)C)NC(=O)[C@H]([C@@H](C)CC)NC(=O)[C@H](Cc2ccccc2)NC(=O)[C@H](C)NC(=O)[C@H](C)NC(=O)[C@H](CCC(N)=O)NC(=O)[C@H](Cc2ccc(O)cc2)NC1=O` (single isomer, unassigned) [FP07872, Ac-Val-nLeu-Gln-R8-Tyr-Gln-Ala-Ala-Phe-Ile-S5-His-Tyr-Val-NH2], the “CellTiter-Glo fold change ± SD” value with Expi293 cells [1] was 1.1 ± 0.02. Moreover, the “Helicon in cells ± SD (%)” value with Expi293 cells [2] is 11.7 ± 1.6%.

Turning to `CC[C@H](C)[C@H](NC(=O)[C@H](Cc1ccc(O)cc1)NC(=O)[C@H](CCC(N)=O)NC(=O)[C@]1(C)CCCC=CCCCCCC[C@@](C)(NC(=O)[C@H](Cc2c[nH]cn2)NC(=O)[C@@H](NC(=O)[C@@H](NC(C)=O)[C@@H](C)CC)[C@@H](C)CC)C(=O)N[C@@H](Cc2ccc(O)cc2)C(=O)N[C@@H](CCC(=O)O)C(=O)N[C@@H](C)C(=O)N[C@@H](C)C(=O)N[C@@H](Cc2ccccc2)C(=O)N[C@@H](Cc2ccccc2)C(=O)N1)C(N)=O` (single isomer, unassigned) [FP08011, Ac-Ile-Ile-His-R8-Tyr-Glu-Ala-Ala-Phe-Phe-S5-Gln-Tyr-Ile-NH2], in the data set on Expi293 cells [1], the “CellTiter-Glo fold change ± SD” value was 1.2 ± 0.01. In addition, the “Helicon in cells ± SD (%)” value in the data set with Expi293 cells [2] was determined as 6.5 ± 0.5%.

Regarding `CC[C@H](C)[C@H](NC(=O)[C@H](Cc1ccc(O)cc1)NC(=O)[C@H](CCC(N)=O)NC(=O)[C@]1(C)CCCC=CCCCCCC[C@@](C)(NC(=O)[C@H](Cc2c[nH]cn2)NC(=O)[C@@H](NC(=O)[C@@H](NC(C)=O)[C@@H](C)CC)[C@@H](C)CC)C(=O)N[C@@H](Cc2ccc(O)cc2)C(=O)N[C@@H](CCC(=O)O)C(=O)N[C@@H](C)C(=O)N[C@@H](C)C(=O)N[C@@H](Cc2ccccc2)C(=O)N[C@@H](Cc2ccccc2)C(=O)N1)C(N)=O` (single isomer, unassigned) [FP08012, Ac-Ile-Ile-His-R8-Tyr-Glu-Ala-Ala-Phe-Phe-S5-Gln-Tyr-Ile-NH2], the “CellTiter-Glo fold change ± SD” value in the data set with Expi293 cells [1] is on record as 1.1 ± 0.04. Besides, the “Helicon in cells ± SD (%)” value in the data set with Expi293 cells [2] was 5.4 ± 0.9%.

With `CCCC[C@H](NC(=O)[C@H](Cc1ccc(O)cc1)NC(=O)[C@H](CCC(N)=O)NC(=O)[C@]1(C)CCCC=CCCCCCC[C@@](C)(NC(=O)[C@H](CCC(=O)O)NC(=O)[C@H](CC(C)C)NC(=O)[C@@H](NC(C)=O)[C@@H](C)CC)C(=O)N[C@@H](Cc2ccc(O)cc2)C(=O)N[C@@H](CCC(=O)O)C(=O)N[C@@H](C)C(=O)N[C@@H](C)C(=O)N[C@@H](Cc2ccccc2)C(=O)N[C@@H](CCC(=O)O)C(=O)N1)C(N)=O` (single isomer, unassigned) [FP08017, Ac-Ile-Leu-Glu-R8-Tyr-Glu-Ala-Ala-Phe-Glu-S5-Gln-Tyr-nLeu-NH2], the “CellTiter-Glo fold change ± SD” value with Expi293 cells [1] is recorded as 1.2 ± 0.01. In addition, the “Helicon in cells ± SD (%)” value in the data set on Expi293 cells [2] came out at 0.6 ± 0.1%.

As to `CCCC[C@H](NC(=O)[C@H](Cc1ccc(O)cc1)NC(=O)[C@H](CCC(N)=O)NC(=O)[C@]1(C)CCCC=CCCCCCC[C@@](C)(NC(=O)[C@H](CCC(=O)O)NC(=O)[C@H](CC(C)C)NC(=O)[C@@H](NC(C)=O)[C@@H](C)CC)C(=O)N[C@@H](Cc2ccc(O)cc2)C(=O)N[C@@H](CCC(=O)O)C(=O)N[C@@H](C)C(=O)N[C@@H](C)C(=O)N[C@@H](Cc2ccccc2)C(=O)N[C@@H](CCC(=O)O)C(=O)N1)C(N)=O` (single isomer, unassigned) [FP08018, Ac-Ile-Leu-Glu-R8-Tyr-Glu-Ala-Ala-Phe-Glu-S5-Gln-Tyr-nLeu-NH2], the “CellTiter-Glo fold change ± SD” value with Expi293 cells [1] came to 1.1 ± 0.05. For the same molecule, the “Helicon in cells ± SD (%)” value with Expi293 cells [2] is listed as 1.0 ± 0.1%.

In the case of `CC(=O)N[C@@H](CC(C)C)C(=O)N[C@H](C(=O)N[C@@H](Cc1ccccc1)C(=O)N[C@]1(C)CCCCCCC=CCCC[C@@](C)(C(=O)N[C@@H](CO)C(=O)N[C@@H](C)C(=O)N[C@@H](C)C(N)=O)NC(=O)[C@H](CC2CCC2)NC(=O)[C@H](CCC(N)=O)NC(=O)[C@H](C)NC(=O)[C@H](Cc2c[nH]c3ccccc23)NC(=O)[C@H](Cc2ccc(O)cc2)NC(=O)[C@H](CCC(=O)O)NC1=O)[C@@H](C)O` [FP01413, Ac-Leu-Thr-Phe-R8-Glu-Tyr-Trp-Ala-Gln-Cba-S5-Ser-Ala-Ala-NH2, reference compound], the “CellTiter-Glo fold change ± SD” value in the data set with Expi293 cells [1] is 1.2 ± 0.07. The “Helicon in cells ± SD (%)” value in the data set on Expi293 cells [2] is on record as 3.7 ± 0.4%.
